Tests used:
[1] = tested on: Bacteria; Fungus and yeast; assay: Preservative efficacy test, criteria of the US Pharmacopoeia (USP <51>); assay type: cell-based; conditions: American pharmacopoeia criteria
Description: (§1) To generate the formulations, the parabens of the existing formulations were replaced with the tested putative paraben replacement. The formulation stayed otherwise the same. As such, all of the preservatives were tested in combination with EDTA.
(§2) Further studies to test use of potassium sorbate for efficacy as an antimicrobial preservative were carried out in the formula with potassium sorbate in order to confirm the minimum concentration of use and definition of the specification, furthering the American and European monographs, in order to meet the different regulatory requirements of the countries in which this new formula will be submitted. The stability studies were conducted for a period of 36 months.

[2] = tested on: Bacteria; Fungus and yeast; assay: Preservative efficacy test, criteria of the European pharmacopoeia (Ph. Eur 5.1.3); assay type: cell-based
Description: as §1, §2

[3] = tested on: Bacteria; Fungus and yeast; assay: Preservative system efficacy test (PET), summary statements; assay type: cell-based; conditions: for preservative system efficacy test (PET) results: in fexofenadine suspension with EDTA, Ph. Eur and USP criteria
Description: as §1, §2

[4] = stability studies conducted for 36 months
Description: as §2

[5] = Fraction of fexofenadine in zwitterion form at suspension pH; assay type: physicochemical; conditions: pH between 5.8 and 7.0
Source text: The conversion of anhydrous form to the zwitterion shape is controlled by the pH of the suspension, which is monitored throughout the manufacture of the product, and controlled by the addition of monobasic sodium phosphate buffers and dibasic sodium phosphate.

C/C=C/C=C/C(=O)[O-].[K+] [Potassium sorbate]
point of failure (concentration) [1]: 0.10 | point of failure (concentration) [2]: 0.3% | concentration considered effective as a preservative ([3]; criteria of both pharmacopoeias, fexofenadine suspension with EDTA): 0.4% | effective as preservative until (stability time) [4]: 36 months

O=C([O-])c1ccccc1.[Na+] [Sodium Benzoate, Sodium benzoate]
preservative system efficacy test (PET) results [3]: satisfactory

CC(C)(C(=O)O)c1ccc(C(O)CCCN2CCC(C(O)(c3ccccc3)c3ccccc3)CC2)cc1.Cl (stereo not drawn) [Fexofenadine, 4-[1-hydroxy-4-[4-(hydroxydiphenylmethyl)-1-piperidinyl]-butyl]-α,α-dimethyl benzeneacetic acid hydrochloride]
fexofenadine in the form of zwitterion [5]: 97%

CCCCCCCCCCCC[N+](C)(C)CCOc1ccccc1 [Domiphen bromide]
preservative system efficacy test (PET) results [3]: good

From US20260034063A1 (Opella Healthcare Group SAS, priority 2023, published 2026)
